Earlier results, collected in US4513029A, “Sea water antifouling method” (priority 1982, dated 1985).

tested on: mice; settings: oral administration to mice (after 24 hours)

Row | Structure (SMILES) | LD50
1 | [Cu].[O]=[Cu] [copper suboxide] | not more than 1,000 mg/kg
2 | CC(=O)[O-].c1cc[c]([Sn+]([c]2ccccc2)[c]2ccccc2)cc1 [tripenyltin acetate] | not more than 1,000 mg/kg
3 | [Cl][Sn]([c]1ccccc1)([c]1ccccc1)[c]1ccccc1 [triphenyltin chloride] | not more than 1,000 mg/kg
4 | [OH][Sn]([c]1ccccc1)([c]1ccccc1)[c]1ccccc1 [triphenyltin hydroxide] | not more than 1,000 mg/kg
